Experimental data as given in patent publication US7381744B1, “Method of treating osteoporosis comprising vacuolar-type (H+)-ATPase-inhibiting compounds” (The United States of America as represented by the …, priority 1999, dated 2008).

Experiments:
Assay type in all cases: biochemical
[1] = test system: mammalian vacuolar-type (H+)-ATPase (from chromaffin granule membranes); assay: mammalian vacuolar-type (H+)-ATPase inhibition, side-by-side test
Description: (§1) The inhibitory data were obtained using the same procedures and biological preparations described in Bowman et al., Proc. Natl. Acad. Sci. USA, 85, 7972-7976 (November 1988).

[2] = test system: vacuolar-type (H+)-ATPase derived from human kidney cells (hK); assay: vacuolar-type (H+)-ATPase inhibition assay, membrane vesicles (hK); details: bafilomycin-sensitive activity; oligomycin 5 μg/ml and vanadate 1 mM present; 37°, 30 minutes
Procedure: (§2) Inhibition of bafilomycin-sensitive vacuolar-type (H+)-ATPase activity was measured in partially purified membrane vesicle preparations from human osteoclastoma cells (hOc), human renal cortical cells (hK), and macrophage cells (J774). The vesicles were prepared by appropriate adaptations of methods described in Gagliardi et al., J. Med. Chem., 41, 1568-1573 (1998); and Gagliardi et al., J. Med. Chem., 41, 1883-1893 (1998).
(§3) Vacuolar-type (H+)-ATPase assays were performed in the presence of oligomycin (5 μg/ml) and vanadate (1 mM) as inhibitors of F- and P-ATPases, respectively. A […] method was used to quantitate the residual bafilomycin-sensitive vacuolar-type (H+)-ATPase activity (see Chan et al., Anal. Biochem., 157, 375-380 (1986)). The assay measures the release of inorganic phosphate from ATP at 37° during 30 minutes of incubation. The reaction is initiated by the addition of MgSO4 ([…]).

[3] = test system: vacuolar-type (H+)-ATPase derived from macrophage cells (J774); assay: vacuolar-type (H+)-ATPase inhibition assay, membrane vesicles (J774); details: bafilomycin-sensitive activity; oligomycin 5 μg/ml and vanadate 1 mM present; 37°, 30 minutes
Procedure: as §2, §3

[4] = test system: fungal vacuolar-type (H+)-ATPase (from Neurospora crassa); assay: fungal vacuolar-type (H+)-ATPase inhibition, side-by-side test
Description: as §1

| SMILES | selectivity for mammalian versus fungal vacuolar-type (H+)-ATPase ([1]; mammalian versus fungal enzyme) | IC50 [2] [nM] | IC50 [3] [nM] | inhibitory activity against fungal vacuolar-type (H+)-ATPase [4] | inhibitory activity against mammalian vacuolar-type (H+)-ATPase ([1]; chromaffin granule membranes, side-by-side test) |
| --- | --- | --- | --- | --- | --- |
| CO/N=C/C=C\C(=O)N/C=C/CC1CC(=O)OC(C)/C=C/C(O)/C(C)=C\Cc2cccc(O)c2C(=O)O1 (centres unmarked) [lobatamide A] | highly selective | 1.8 | 2.8 |  |  |
| C/C=C/[C@H]1O[C@@](O)([C@@H](C)[C@H](O)[C@H](C)[C@H]2OC(=O)/C(OC)=C/C(C)=C/[C@@H](C)[C@@H](O)[C@@H](CC)[C@@H](O)[C@H](C)C/C(C)=C/C=C/[C@@H]2OC)C[C@@H](O[C@H]2C[C@@H](O)[C@H](OC(N)=O)[C@@H](C)O2)[C@@H]1C [concanamycin A, reference compound] |  |  |  | potent inhibitor | potent inhibitor |
